Laboratory results: patent US12616753B2, “HSP70 inhibitors and methods of using same” (THE WISTAR INSTITUTE, priority 2020, dated 2026)

How the values were obtained:
[1] = tested on: MC38 cells; assay: Matrigel invasion assay; assay type: cell-based, mouse; conditions: low doses, 24 hours
Protocol: FIG. 24A: MC38 cells were subjected to invasion assays using BioCoat Matrigel transwells in the presence of the indicated concentrations of AP-4-139B. 24 hours later, cells were fixed and stained with Crystal Violet. Shown are representative images taken from 8 random fields of view per well. Scale bar=100 μm. FIG. 24B: Quantification of FIG. 24A *** p<0.001. FIG. 24C: Schematic representation of the metastasis assay. 4×10^5 MC38 cells were injected into the tail vein of 8-10 week old male C57Bl/6 mice. Mice were treated with i.p. injection of 10 mg/kg AP-4-139B every 48 hours. After 3 weeks, the lungs of mice were formalin fixed and H&E stained, and assessed for the presence of metastatic nodules. FIG. 24D: Representative images of lung metastases (black arrows) from C57Bl/6 mice injected with MC38 cells in the tail vein, followed by treatment with vehicle or AP-4-139B. Scale bar=250 μm. FIG. 24E: Quantification of FIG. 24D. n=5 mice per group. * p<0.05.
Matrigel invasion assays were carried out using 24-well Corning® BioCoat™ Matrigel Invasion Chambers with an 8.0 μm PET membrane (#354480). Transwells were first rehydrated with serum free DMEM for 2 hours at 37° C. […] Number of invaded cells per field (n=8 random fields of view per transwell) were quantified with ImageJSoftware (NIH), normalized to live cells, and expressed as mean±SEM.

[2] = tested on: CCD 841 CoN cells; assay: Trypan Blue exclusion viability assay, normal colon epithelial cells; assay type: cell-based; conditions: 10 μM, 48 hours
[3] = tested on: MC38 and CT26; assay: Alamar Blue cell viability assay, mouse CRC cell lines; assay type: cell-based; conditions: 72 hours
Protocol: FIGS. 5A-5F show AP-4-139B is efficacious against CRC in an immunocompetent model, and causes immune cell recruitment. FIGS. 5A-5B: Mouse CRC cell lines, MC38 (FIG. 5A) and CT26 (FIG. 5B), were plated at a density of 1,000 cells per well in 96-well plates. The next day, cells were treated with the indicated inhibitors for 72 hours. Cells were then subjected to the Alamar Blue cell viability assays. Shown are representative IC50 values of an average of six technical replicates and two biological replicates. FIG. 5C: Mouse CRC cell lines MC38 and CT26 were treated with 10 μM AP-4-139B for 24 or 48 hours and immunoblotted for HSP70, p53, AKT, Cleaved Lamin A (CLA), Cleaved Caspase 3, MRPS14, and GAPDH (loading control). The doublet detected for HSP70 is seen in other murine cell lines, and may represent a degradation product or post-translational modification. FIG. 5D: 1×10^6 MC38 cells were injected subcutaneously into the right flank of 6-8 week old male C57Bl/6 mice. Once tumors reached an approximate volume of 50 mm^3, mice were separated randomly into two groups: vehicle vs. AP-4-139B. Mice were treated with 10 mg/kg AP-4-139B every 48 hours. All mice were euthanized 20 days after the start of treatment. Tumor volumes were recorded using digital calipers and using the formula v=length×width^2×0.52. *** p<0.001. n=15 mice per group.

[4] = tested on: MC38 and HT-29 cells; assay: Extracellular HMGB1 release; assay type: cell-based; conditions: 8 or 24 hours
Protocol: FIG. 6A: 1×10^6 MC38 cells were injected subcutaneously into the right flank of 6-8-week-old male C57Bl/6 mice. Once tumors reached an approximate volume of 100 mm^3, mice were treated with AP-4-139B (10 mg/kg) every 48 hours. 20 days after the start of treatment, tumors were excised, weighed, minced and digested. Tumor-infiltrating and splenic conventional CD4 (cCD4) (Live CD45^+ DUMP^− CD3^+CD4^+Foxp3^−), Tregs (Live CD45^+ DUMP^− CD3^+CD4^+Foxp3^+), CD8 (Live CD45^+ DUMP^− CD3^+CD8^+) T-cells, and Dendritic Cells (Live CD45^+ DUMP^− CD3^−CD11c^+MHCII^+) numbers were assessed by flow cytometry. * p<0.05, n.s. not significant. n=8 mice per group. FIG. 6B: MC38 and HT-29 cells were treated with the indicated concentrations of AP-4-139B for either 8 or 24 hours; media was collected and subjected to WB for HMGB1. Data shown are representative of three technical replicates. FIG. 6C: MC38 and HT-29 cells were treated with the indicated concentrations of AP-4-139B for three hours and then assayed for extracellular ATP release. […]
The XF Cell Mito Stress Test was performed. […] For extracellular ATP release, ATP was measured using the CellTiter-Glo Kit (Promega catalog #G7570). […] 10 μl of CellTiter-Glo Reaction Mix was then mixed with 10 μl of culture media; the luminescence signal was detected using a luminometer.

## c1ccc(-c2cn3nc(CCCCCC[P+](c4ccccc4)(c4ccccc4)c4ccccc4)sc3n2)cc1 [AP-4-139B, Triphenyl(6-(6-phenylimidazo[2,1-b][1,3,4]thiadiazol-2-yl)hexyl)phosphonium bromide]
[1]
  tumor cell migration and invasion: sufficient to inhibit tumor cell migration and invasion
[2]
  toxicity to normal colon epithelial cells: far less sensitive
[3]
  IC50s in murine CRC lines (in words): comparable to that of oxaliplatin
[4]
  HMGB1 secretion: reproducibly induced HMGB1 secretion
